Data as given in patent US12441707B2, “Indazole compounds” (TYRA BIOSCIENCES, INC., priority 2019, dated 2025).
Like-named read-outs stand apart in the source and are kept apart here.

Assays:
FGFR1 = FGFR1 (Homo sapiens (Human), UniProt P11362); assay: Kinase binding assay (kinase-tagged T7 phage, liganded affinity beads, qPCR); settings: binding constant; 0.9% DMSO
FGFR3 = FGFR3 (Homo sapiens (Human), UniProt P22607); assay: as above; settings: binding constant; 0.9% DMSO
FGFR2 [1] = target: T1, FGFR2 (Homo sapiens (Human), UniProt P21802); assay: biochemical
FGFR2 [2] = target: T1, FGFR2
[3] = system: RT112/84 cells (Bladder Cancer, FGFR3-TACC3 fusion); assay: RT112/84 cell viability assay (CellTiter-Glo 2.0); format: cell-based; settings: Homo sapiens, 72 hours
Source text: Example B. RT112/84 Cell Viability Assay
RT112/84 cell line was purchased from American Type Culture Collection (Manassas, VA).
(§1) Experimental Purpose: To detect the change of intracellular ATP by Cell Titer-Glo® and to evaluate the inhibitory effect of the compounds on cancer cell lines by determining the in vitro IC50 value of the compounds.
(§2) RT112/84 and KG-1 cell lines were purchased from American Type Culture Collection (Manassas, VA). UM-UC-14 cell line was purchased from Sigma (St. Louis, MO).

[4] = system: KG-1 cells (Acute Myeloid Leukemia, FGFR1OP2-FGFR1 fusion); assay: KG-1 cancer cell line cell viability assay (CellTiter-Glo 2.0); format: cell-based; settings: Homo sapiens, 72 hours
Source text: as §1, §2

[5] = system: UM-UC-14 cells (Bladder Cancer, FGFR3(S249C)); assay: UM-UC-14 cancer cell line cell viability assay (CellTiter-Glo 2.0); format: cell-based; settings: UMUC14, 72 hours
Source text: as §1, §2

[6] = target: FGFR3-BAIAP2L1 Ba/F3 cells
FGFR3-BAIAP2L1 Ba/F3 cells, sequence (P22607 23-806 limits assumed, change not shown): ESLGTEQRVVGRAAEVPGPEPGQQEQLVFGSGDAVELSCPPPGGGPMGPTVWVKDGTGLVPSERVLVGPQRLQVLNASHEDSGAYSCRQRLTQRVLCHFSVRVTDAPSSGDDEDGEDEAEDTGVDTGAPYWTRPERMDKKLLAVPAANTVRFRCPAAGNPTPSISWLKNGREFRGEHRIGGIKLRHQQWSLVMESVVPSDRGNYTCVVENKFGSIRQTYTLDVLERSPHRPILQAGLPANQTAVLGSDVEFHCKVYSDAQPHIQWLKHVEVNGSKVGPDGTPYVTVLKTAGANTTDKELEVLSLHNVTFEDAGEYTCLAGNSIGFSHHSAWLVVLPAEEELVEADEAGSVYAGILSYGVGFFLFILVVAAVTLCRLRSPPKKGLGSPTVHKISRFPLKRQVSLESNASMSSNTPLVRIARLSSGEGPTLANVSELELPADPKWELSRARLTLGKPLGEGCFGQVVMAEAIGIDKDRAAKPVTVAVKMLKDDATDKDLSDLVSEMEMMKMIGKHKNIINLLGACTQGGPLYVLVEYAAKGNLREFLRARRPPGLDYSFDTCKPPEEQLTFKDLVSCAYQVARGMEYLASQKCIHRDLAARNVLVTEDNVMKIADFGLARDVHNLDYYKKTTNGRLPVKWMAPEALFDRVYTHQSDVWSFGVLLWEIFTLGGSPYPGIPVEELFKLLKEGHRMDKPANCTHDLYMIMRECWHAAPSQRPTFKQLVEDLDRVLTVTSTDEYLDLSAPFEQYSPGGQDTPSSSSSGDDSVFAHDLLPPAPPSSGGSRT

T1 sequence (P21802 22-821): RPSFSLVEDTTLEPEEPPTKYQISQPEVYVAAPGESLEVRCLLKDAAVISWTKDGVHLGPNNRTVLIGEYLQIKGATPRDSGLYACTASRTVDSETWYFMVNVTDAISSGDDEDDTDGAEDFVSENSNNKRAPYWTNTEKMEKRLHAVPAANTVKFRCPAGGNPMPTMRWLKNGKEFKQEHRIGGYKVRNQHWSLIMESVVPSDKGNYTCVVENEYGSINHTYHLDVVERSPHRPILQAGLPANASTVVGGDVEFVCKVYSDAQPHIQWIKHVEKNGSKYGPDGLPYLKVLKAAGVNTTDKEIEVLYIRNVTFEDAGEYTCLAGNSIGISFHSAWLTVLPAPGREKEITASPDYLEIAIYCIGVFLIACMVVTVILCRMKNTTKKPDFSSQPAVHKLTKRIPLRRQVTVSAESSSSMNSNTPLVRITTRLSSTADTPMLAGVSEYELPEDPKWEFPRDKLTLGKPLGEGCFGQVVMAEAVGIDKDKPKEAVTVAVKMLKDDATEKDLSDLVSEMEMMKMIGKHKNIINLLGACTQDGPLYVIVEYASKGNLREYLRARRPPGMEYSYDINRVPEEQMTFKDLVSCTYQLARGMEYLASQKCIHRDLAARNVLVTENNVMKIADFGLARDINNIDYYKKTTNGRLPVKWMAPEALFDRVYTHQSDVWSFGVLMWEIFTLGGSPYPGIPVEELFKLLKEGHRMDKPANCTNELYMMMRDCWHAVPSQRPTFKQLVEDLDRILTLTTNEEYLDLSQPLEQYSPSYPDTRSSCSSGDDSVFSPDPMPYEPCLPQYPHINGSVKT
FGFR3, sequence (P22607 23-806): as the sequence (P22607 23-806 limits assumed, change not shown) above
FGFR1, sequence (P11362 22-822): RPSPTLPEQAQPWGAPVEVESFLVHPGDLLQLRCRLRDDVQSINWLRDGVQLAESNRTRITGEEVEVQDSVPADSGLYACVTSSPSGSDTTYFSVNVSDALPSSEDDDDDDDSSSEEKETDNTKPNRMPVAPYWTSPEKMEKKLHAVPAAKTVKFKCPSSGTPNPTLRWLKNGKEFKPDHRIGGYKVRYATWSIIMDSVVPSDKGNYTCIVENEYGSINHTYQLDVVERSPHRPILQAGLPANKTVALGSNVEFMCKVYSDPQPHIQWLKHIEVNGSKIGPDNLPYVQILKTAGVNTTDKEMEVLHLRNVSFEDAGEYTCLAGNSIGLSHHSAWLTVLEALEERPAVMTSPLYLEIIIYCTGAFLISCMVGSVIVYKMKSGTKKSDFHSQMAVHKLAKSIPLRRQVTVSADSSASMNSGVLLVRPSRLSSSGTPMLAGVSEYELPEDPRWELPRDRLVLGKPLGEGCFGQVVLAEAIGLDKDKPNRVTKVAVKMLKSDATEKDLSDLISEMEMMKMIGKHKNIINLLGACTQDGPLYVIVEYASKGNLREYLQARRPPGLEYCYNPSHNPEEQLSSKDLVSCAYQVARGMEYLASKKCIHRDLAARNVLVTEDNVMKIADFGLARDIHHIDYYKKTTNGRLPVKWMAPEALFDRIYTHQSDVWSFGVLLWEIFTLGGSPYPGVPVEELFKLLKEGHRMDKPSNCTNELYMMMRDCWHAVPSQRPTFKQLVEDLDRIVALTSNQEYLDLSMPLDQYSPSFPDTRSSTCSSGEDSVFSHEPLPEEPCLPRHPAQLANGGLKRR

| SMILES | IC50 [3] [nM] | IC50 [4] [nM] | IC50 [5] [nM] | also measured |
| --- | --- | --- | --- | --- |
| CC(Oc1ccc2[nH]nc(-c3cccc(N=S(C)(C)=O)c3)c2c1)c1c(Cl)cncc1Cl (stereo not shown) [Example 1, [3-[5-[1-(3,5-dichloro-4-pyridyl)ethoxy]-1H-indazol-3-yl]phenyl]imino-dimethyl-oxo-λ^6-sulfane] | – | – | – | Kd (FGFR1): 770 nM; Kd (FGFR3): 76 nM; Kd (FGFR2 [1]): 550 nM |
| CC(Oc1ccc2[nH]nc(-c3cccc(S(C)(=N)=O)c3)c2c1)c1c(Cl)cncc1Cl (stereo not shown) [Example 2, (3-(5-(1-(3,5-Dichloropyridin-4-yl)ethoxy)-1H-indazol-3-yl)phenyl)(imino) (methyl)-λ^6-6-sulfanone] | – | – | – | Kd (FGFR1): 1200 nM; Kd (FGFR3): 120 nM; Kd (FGFR2 [2]): 400 nM |
| C[C@@H](Oc1ccc2[nH]nc(/C=C/c3ccc(N=S(C)(C)=O)nc3)c2c1)c1c(Cl)cncc1Cl [Example 3] | 20 | 0.4 | – | – |
| CC(Oc1ccc2[nH]nc(C(=O)Nc3ccc(S(C)(=N)=O)nc3)c2c1)c1c(Cl)cncc1Cl (stereo not shown) [Example 6, 5-(1-(3,5-Dichloropyridin-4-yl)ethoxy)-N-(6-(S-methylsulfonimidoyl)pyridine-3-yl)-1H-indazole-3-carboxamide] | – | – | – | Kd (FGFR1): 260 nM; Kd (FGFR3): 47 nM; Kd (FGFR2 [2]): 120 nM |
| C[C@H](Oc1ccc2[nH]nc(-c3ccc(N4CCS(=N)(=O)CC4)cc3)c2c1)c1c(Cl)cncc1Cl [Example 14, (S)-4-(4-(5-(1-(3,5-Dichloropyridin-4-yl)ethoxy)-1H-indazol-3-yl)phenyl)-1-imino-1λ^6-thiomorpholine 1-oxide] | 75 | – | – | – |
| C[C@@H](Oc1ccc2[nH]nc(NC(=O)c3ccc(N=S(C)(C)=O)nc3)c2c1)c1c(Cl)cncc1Cl [Example 19, (R)—N-(5-(1-(3,5-Dichloropyridin-4-yl)ethoxy)-1H-indazol-3-yl)-6-((dimethyl(oxo)-λ^6-sulfaneylidene)amino)nicotinamide] | 39 | – | – | – |
| CN=S1(=O)CCN(c2ccc(-c3n[nH]c4ccc(O[C@H](C)c5c(Cl)cncc5Cl)cc34)cn2)CC1 [Example 24, 4-[5-[5-[(1R)-1-(3,5-dichloro-4-pyridyl)ethoxy]-1H-indazol-3-yl]-2-pyridyl]-1-methylimino-1,4-thiazinane 1-oxide] | 8.4 | 169 | 12 | – |
| C[C@@H](Oc1ccc2[nH]nc(-c3cnc(N=S(C)(C)=O)nc3)c2c1)c1c(Cl)cncc1Cl [Example 26, [5-[5-[(1R)-1-(3,5-dichloro-4-pyridyl)ethoxy]-1H-indazol-3-yl]pyrimidin-2-yl]imino-dimethyl-oxo-λ^6-sulfane] | 22 | 123 | 29 | IC50 [6]: 18 nM |
| Cc1ncc(Cl)c([C@@H](C)Oc2ccc3[nH]nc(-c4ccc(N=S(C)(C)=O)nc4)c3c2)c1Cl [Example 30, [5-[5-[(1R)-1-(3,5-dichloro-2-methyl-4-pyridyl)ethoxy]-1H-indazol-3-yl]-2-pyridyl]imino-dimethyl-oxo-λ^6-sulfane] | 38 | – | 47 | – |
| C[C@@H](Oc1ccc2[nH]nc(-c3ccc(N=S4(=O)CCCC4)nc3)c2c1)c1c(Cl)cncc1Cl [Example 32, 1-[[5-[5-[(1R)-1-(3,5-Dichloro-4-pyridyl)ethoxy]-1H-indazol-3-yl]-2-pyridyl]imino]thiolane 1-oxide] | – | – | – | Kd (FGFR1): 14 nM; Kd (FGFR3): 1.9 nM; Kd (FGFR2 [1]): 15 nM |

Second part, led by results:

| IC50 [3] [nM] | IC50 [4] [nM] | IC50 [5] [nM] | SMILES | also measured |
| --- | --- | --- | --- | --- |
| 4.3 | 45 | 5.9 | C[C@@H](Oc1ccc2[nH]nc(-c3ccc(N4CCS(=N)(=O)CC4)nc3)c2c1)c1c(Cl)cncc1Cl [Example 12, (R)-4-(5-(5-(1-(3,5-Dichloropyridin-4-yl)ethoxy)-1H-indazol-3-yl)pyridin-2-yl)-1-imino-1λ^6-thiomorpholine 1-oxide] | – |
| 16 | – | – | C[C@@H](Oc1ccc2[nH]nc(-c3ccc(N4CCS(=N)(=O)CC4)cc3)c2c1)c1c(Cl)cncc1Cl [Example 13, (R)-4-(4-(5-(1-(3,5-Dichloropyridin-4-yl)ethoxy)-1H-indazol-3-yl)phenyl)-1-imino-1λ^6-thiomorpholine 1-oxide] | – |
| 11 | 103 | 19 | C[C@@H](Oc1ccc2[nH]nc(-c3ccc(N=S(C)(C)=O)nc3)c2c1)c1c(Cl)cncc1Cl [Example 21, (R)-((5-(5-(1-(3,5-Dichloropyridin-4-yl)ethoxy)-1H-indazol-3-yl)pyridin-2-yl)imino)dimethyl-λ^6-sulfanone] | – |
| 14 | 81 | 19 | C[C@@H](Oc1ccc2[nH]nc(-c3cnc(N=S(C)(C)=O)c(F)c3)c2c1)c1c(Cl)cncc1Cl [Example 25, [5-[5-[(1R)-1-(3,5-dichloro-4-pyridyl)ethoxy]-1H-indazol-3-yl]-3-fluoro-2-pyridyl]imino-dimethyl-oxo-λ^6-sulfane] | – |
| 28 | – | 44 | C[C@@H](Oc1ccc2[nH]nc(-c3ccc(S(C)(=N)=O)nc3)c2c1)c1c(Cl)cncc1Cl (stereo partly drawn) [Example 28, [5-[5-[(1R)-1-(3,5-dichloro-4-pyridyl)ethoxy]-1H-indazol-3-yl]-2-pyridyl]-imino-methyl-oxo-λ^6-sulfane] | – |
